We go through eight molecules from ChEMBL document CHEMBL1159162, “Conformationally constrained analogues of diacylglycerol (DAG). 3. Interaction of -alkyl--lactones with protein kinase C (PK-C)” (Bioorg Med Chem Lett, 1993).

The Ki is a measure of affinity in units of concentration, obtained from inhibition or displacement. Read a low Ki as higher affinity.

Target in one assay: not listed separately
The assay is described as follows: (§1) Inhibition of [20-3H]phorbol-12,13-dibutyrate (PDBU) binding to protein kinase-C (PKC alpha, beta and gamma) from mouse brain.
Take `CCCCCCCCCCCCCC(=O)O[C@H]1[C@H](CO)OC(=O)[C@@H]1CCCCCCCCCCCC`: the Ki was found to be 2900 nM.

As for `CCCCCCCCCCCCCC(=O)O[C@@H]1CC(=O)O[C@H]1CO`, affinity was put at a Ki of 2500 nM.

The molecule `CCCCCCCCCCCC[C@H]1C(=O)O[C@@H](CO)[C@@H]1OC(C)=O` registered a Ki of 1100 nM.

The molecule `CCCCCCCCCCCCCC[C@H]1C(=O)O[C@@H](CO)[C@@H]1OC(C)=O` gave a Ki of 600 nM.

`CCCCCCCCCCCCCC(=O)O[C@H]1CC(=O)O[C@@H]1CO` had an inhibitory constant (Ki) of 5300 nM.

Take `CCCCCCCCCCCCCC(=O)OC[C@H](CO)OC(C)=O`: the Ki amounted to 500 nM.

For the next assay, the species on record is Mus musculus. The description is as §1.
As for `CCCCCCCCCCCCCC(=O)O[C@H]1C(CCCCCCCCCCCC)C(=O)O[C@@H]1CO` (stereo partly drawn), the ED50 is over 200000 nM.

On to `CCCCCCCCCCCCC1C(=O)O[C@H](CO)[C@H]1OC(C)=O` (stereo partly drawn), for which the ED50 was over 100000 nM.
